Literature values in US20090053769A1, “HETEROLOGOUS PRODUCTION OF NATURAL PRODUCTS IN BACTERIA” (University of Southern California, priority 2007, published 2009).
Positions of bridges follow the written chain, without caps; N, C: chain ends. Non-standard residues stand in square brackets, D forms with d. Residues, ends and D or L forms follow the SMILES beside them. Chains are numbered I, II in the order given. *: point of attachment. Quinoxaline2carbonyl = O=C(c1cnc2ccccc2n1)*; NMeV = CN[CH](C(=O)O)C(C)C; NMeC = CN[CH](CS)C(=O)O

Conditions: general statement on antibacterial, anticancer and antiviral activities, reference 24

Row | SMILES | potency
1 | CS[C@H]1SC[C@H]2C(=O)N(C)[C@@H](C(C)C)C(=O)OC[C@@H](NC(=O)c3cnc4ccccc4n3)C(=O)N[C@@H](C)C(=O)N(C)[C@@H]1C(=O)N(C)[C@@H](C(C)C)C(=O)OC[C@@H](NC(=O)c1cnc3ccccc3n1)C(=O)N[C@@H](C)C(=O)N2C [compound 1, echinomycin] | nanomolar potency
2 | CC1NC(=O)C(NC(=O)c2cnc3ccccc3n2)COC(=O)C(C(C)C)N(C)C(=O)C2CSSCC(C(=O)N(C)C(C(C)C)C(=O)OCC(NC(=O)c3cnc4ccccc4n3)C(=O)NC(C)C(=O)N2C)N(C)C1=O (centres unmarked) [compound 2, triostin A] (I: Quinoxaline2carbonyl-SA[NMeC][NMeV] / II: Quinoxaline2carbonyl-SA[NMeC][NMeV]; ester I:1-II:C, I:C-II:1; disulfide I:3-II:3; configuration not given here) | nanomolar potency
